Molecular target: T1, human liver GK (Homo sapiens, UniProt P35557)
T1 construct: GST (glutathione S-transferase) (N); made in house; host or cells: E. coli
T1 sequence (P35557 1-466 isoform P35557-2): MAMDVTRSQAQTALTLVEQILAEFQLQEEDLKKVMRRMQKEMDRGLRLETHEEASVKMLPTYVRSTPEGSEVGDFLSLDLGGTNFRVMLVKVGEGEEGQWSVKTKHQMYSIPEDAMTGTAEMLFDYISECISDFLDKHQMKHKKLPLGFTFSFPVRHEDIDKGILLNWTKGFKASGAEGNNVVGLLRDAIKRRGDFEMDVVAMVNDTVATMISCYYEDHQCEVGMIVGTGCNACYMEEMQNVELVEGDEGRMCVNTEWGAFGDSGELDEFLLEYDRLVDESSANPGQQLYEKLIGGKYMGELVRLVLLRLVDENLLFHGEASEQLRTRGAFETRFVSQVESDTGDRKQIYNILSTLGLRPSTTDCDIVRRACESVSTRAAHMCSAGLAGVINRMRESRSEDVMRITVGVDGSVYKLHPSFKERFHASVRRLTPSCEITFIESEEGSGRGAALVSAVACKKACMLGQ
Assay: GK activation test
Assay type: biochemical
Conditions: test compound concentration needed to activate 50% of maximum activation ability; 4 mM 14C-labeled glucose, 2 mM ATP, room temperature, 20 minutes
In short: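 GST-tagged human liver GK from E. coli (0.24 μg/well) with 4 mM 14C-glucose, 2 mM ATP in Hepes-KOH pH 7.1, KCl, MgCl2, DTT, 1% DMSO, 20 min room temperature. Labeled glucose 6-phosphate captured on anion resin, eluted and counted. EC50 = concentration giving half of maximal activation.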

SMILES | EC50 [µM]
O=C1CC[C@H](/C=C(\c2ccc(C(F)(F)F)cc2)c2ccc(OCCCO)c(=O)[nH]2)N1 [Example 4-170, 3-(3-Hydroxypropoxy)-6-{(E)-2-[(2R)-5-oxopyrrolidin-2-yl]-1-[4-(trifluoromethyl)phenyl]ethenyl}pyridin-2(1H)-one] | 3 to 10
CC(C)(CO)COc1ccc(/C(=C/[C@H]2CCC(=O)N2)c2ccc(C(F)(F)F)cc2)[nH]c1=O [Example 4-171, 3-(3-Hydroxy-2,2-dimethylpropoxy)-6-{(E)-2-[(2R)-5-oxopyrrolidin-2-yl]-1-[4-(trifluoromethyl)phenyl]ethenyl}pyridin-2(1H)-one] | 3 to 10
O=C1CC[C@H](/C=C(\c2ccc(C(F)(F)F)cn2)c2ccc(C3CC3)c(=O)[nH]2)N1 [Example 4-172, 3-Cyclopropyl-6-{(Z)-2-[(2R)-5-oxopyrrolidin-2-yl]-1-[5-(trifluoromethyl)pyridin-2-yl]ethenyl}pyridin-2(1H)-one] | 0.5 to 3
CC(C)(C)c1ccc(/C(=C\[C@H]2CCC(=O)N2)c2ccc(N)c(=O)[nH]2)cc1 [Example 4-173, 3-Amino-6-{(E)-1-(4-tert-butylphenyl)-2-[(2R)-5-oxopyrrolidin-2-yl]ethenyl}pyridin-2(1H)-one] | 0.5 to 3
CN(C)c1ccc(/C(=C/[C@H]2CCC(=O)N2)c2ccc(C(C)(C)C)cc2)[nH]c1=O [Example 4-174, 6-{(E)-1-(4-tert-Butylphenyl)-2-[(2R)-5-oxopyrrolidin-2-yl]ethenyl}-3-(dimethylamino)pyridin-2(1H)-one] | 0.01 to 0.5
CC(=O)c1ccc(/C(=C/[C@H]2CCC(=O)N2)c2ccc(C(C)(C)C)cc2)[nH]c1=O [Example 4-175, 3-Acetyl-6-{(E)-1-(4-tert-butylphenyl)-2-[(2R)-5-oxopyrrolidin-2-yl]ethenyl}pyridin-2(1H)-one] | 0.5 to 3
CCc1ccc(/C(=C/[C@H]2CCC(=O)N2)c2ccc(C(C)(C)C)cc2)[nH]c1=O [Example 4-176, 6-{(E)-1-(4-tert-Butylphenyl)-2-[(2R)-5-oxopyrrolidin-2-yl]ethenyl}-3-ethylpyridin-2(1H)-one] | 0.01 to 0.5
CC(C)(C)c1ccc(/C(=C\[C@H]2CCC(=O)N2)c2ccc(Br)c(=O)[nH]2)cc1 [Example 4-177, 3-Bromo-6-{(E)-1-(4-tert-butylphenyl)-2-[(2R)-5-oxopyrrolidin-2-yl]ethenyl}pyridin-2(1H)-one] | 0.01 to 0.5
CC(C)(C)c1ccc(/C(=C\[C@H]2CCC(=O)N2)c2ccc(-c3ccccc3)c(=O)[nH]2)cc1 [Example 4-178, 6-{(E)-1-(4-tert-Butylphenyl)-2-[(2R)-5-oxopyrrolidin-2-yl]ethenyl}-3-phenylpyridin-2(1H)-one] | 0.01 to 0.5
CC(C)(C)c1ccc(/C(=C\[C@H]2CCC(=O)N2)c2ccc(-c3ccncc3)c(=O)[nH]2)cc1 [Example 4-179, 6-{(E)-1-(4-tert-Butylphenyl)-2-[(2R)-5-oxopyrrolidin-2-yl]ethenyl}-3,4′-bipyridin-2(1H)-one] | 0.01 to 0.5
CC(C)(C)c1ccc(/C(=C\[C@H]2CCC(=O)N2)c2ccc(-c3cccnc3)c(=O)[nH]2)cc1 [Example 4-180, 6-{(E)-1-(4-tert-Butylphenyl)-2-[(2R)-5-oxopyrrolidin-2-yl]ethenyl}-3,3′-bipyridin-2(1H)-one] | 0.01 to 0.5
Cc1nc(C)c(-c2ccc(/C(=C/[C@H]3CCC(=O)N3)c3ccc(C(C)(C)C)cc3)[nH]c2=O)s1 [Example 4-181, 6-{(E)-1-(4-tert-Butylphenyl)-2-[(2R)-5-oxopyrrolidin-2-yl]ethenyl}-3-(2,4-dimethyl-1,3-thiazol-5-yl)pyridin-2(1H)-one] | 0.5 to 3
CC(C)Cn1cc(-c2ccc(/C(=C/[C@H]3CCC(=O)N3)c3ccc(C(C)(C)C)cc3)[nH]c2=O)cn1 [Example 4-182, 6-{(E)-1-(4-tert-Butylphenyl)-2-[(2R)-5-oxopyrrolidin-2-yl]ethenyl}-3-[1-(2-methylpropyl)-1H-pyrazol-4-yl]pyridin-2(1H)-one] | 0.5 to 3
Cn1cc(-c2ccc(/C(=C/[C@H]3CCC(=O)N3)c3ccc(C(C)(C)C)cc3)[nH]c2=O)cn1 [Example 4-183, 6-{(E)-1-(4-tert-Butylphenyl)-2-[(2R)-5-oxopyrrolidin-2-yl]ethenyl}-3-(1-methyl-1H-pyrazol-4-yl)pyridin-2(1H)-one] | 0.01 to 0.5
CC(C)(C)c1ccc(/C(=C\[C@H]2CCC(=O)N2)c2ccc(-c3cnoc3)c(=O)[nH]2)cc1 [Example 4-184, 6-{(E)-1-(4-tert-Butylphenyl)-2-[(2R)-5-oxopyrrolidin-2-yl]ethenyl}-3-(1,2-oxazol-4-yl)pyridin-2(1H)-one] | 0.01 to 0.5
CC(C)(C)c1ccc(/C(=C\[C@H]2CCC(=O)N2)c2ccc(Oc3ccccc3)c(=O)[nH]2)cc1 [Example 4-185, 6-{(E)-1-(4-tert-Butylphenyl)-2-[(2R)-5-oxopyrrolidin-2-yl]ethenyl}-3-phenoxypyridin-2(1H)-one] | 0.01 to 0.5
CC(C)(C)c1ccc(/C(=C\[C@H]2CCC(=O)N2)c2cccc(=O)[nH]2)cc1 [Example 4-186, 6-{(E)-1-(4-tert-Butylphenyl)-2-[(2R)-5-oxopyrrolidin-2-yl]ethenyl}pyridin-2(1H)-one] | 0.5 to 3
Cc1ccc(Oc2ccc(/C(=C/[C@H]3CCC(=O)N3)c3ccc(C(C)(C)C)cc3)[nH]c2=O)cc1 [Example 4-187, 6-{(E)-1-(4-tert-Butylphenyl)-2-[(2R)-5-oxopyrrolidin-2-yl]ethenyl}-3-(4-methylphenoxy)pyridin-2(1H)-one] | 0.5 to 3
CC(C)(C)c1ccc(/C(=C\[C@H]2CCC(=O)N2)c2ccc(Oc3ccc(Cl)cc3)c(=O)[nH]2)cc1 [Example 4-188, 6-{(E)-1-(4-tert-Butylphenyl)-2-[(2R)-5-oxopyrrolidin-2-yl]ethenyl}-3-(4-chlorophenoxy)pyridin-2(1H)-one] | 0.5 to 3
CC(C)(C)c1ccc(/C(=C\[C@H]2CCC(=O)N2)c2ccc(Oc3ccc(C(F)(F)F)cc3)c(=O)[nH]2)cc1 [Example 4-189, 6-{(E)-1-(4-tert-Butylphenyl)-2-[(2R)-5-oxopyrrolidin-2-yl]ethenyl}-3-[4-(trifluoromethyl)phenoxy]pyridin-2(1H)-one] | 0.5 to 3
CC(C)(C)c1ccc(/C(=C\[C@H]2CCC(=O)N2)c2ccc(CCCCO)c(=O)[nH]2)cc1 [Example 4-190, 6-{(E)-1-(4-tert-Butylphenyl)-2-[(2R)-5-oxopyrrolidin-2-yl]ethenyl}-3-(4-hydroxybutyl)pyridin-2(1H)-one] | 0.01 to 0.5
CN(C)CCCCc1ccc(/C(=C/[C@H]2CCC(=O)N2)c2ccc(C(C)(C)C)cc2)[nH]c1=O [Example 4-191, 6-{(E)-1-(4-tert-Butylphenyl)-2-[(2R)-5-oxopyrrolidin-2-yl]ethenyl}-3-[4-(dimethylamino)butyl]pyridin-2(1H)-one] | 0.5 to 3
CCCc1ccc(/C(=C/[C@H]2CCC(=O)N2)c2ccc(C(C)(C)C)cc2)[nH]c1=O [Example 4-192, 6-{(E)-1-(4-tert-Butylphenyl)-2-[(2R)-5-oxopyrrolidin-2-yl]ethenyl}-3-propylpyridin-2(1H)-one] | 0.01 to 0.5
CCCCCc1ccc(/C(=C/[C@H]2CCC(=O)N2)c2ccc(C(C)(C)C)cc2)[nH]c1=O [Example 4-193, 6-{(E)-1-(4-tert-Butylphenyl)-2-[(2R)-5-oxopyrrolidin-2-yl]ethenyl}-3-pentylpyridin-2(1H)-one] | 0.01 to 0.5
CC(C)(C)c1ccc(/C(=C\[C@H]2CCC(=O)N2)c2ccc(C3CCCC3)c(=O)[nH]2)cc1 [Example 4-194, 6-{(E)-1-(4-tert-Butylphenyl)-2-[(2R)-5-oxopyrrolidin-2-yl]ethenyl}-3-cyclopentylpyridin-2(1H)-one] | 0.01 to 0.5
CC(C)(C)c1ccc(/C(=C\[C@H]2CCC(=O)N2)c2ccc(CCC3CCCCC3)c(=O)[nH]2)cc1 [Example 4-195, 6-{(E)-1-(4-tert-Butylphenyl)-2-[(2R)-5-oxopyrrolidin-2-yl]ethenyl}-3-(2-cyclohexylethyl)pyridin-2(1H)-one] | 0.01 to 0.5
CC(C)(C)c1ccc(/C(=C\[C@H]2CCC(=O)N2)c2ccc(CCc3ccccc3)c(=O)[nH]2)cc1 [Example 4-196, 6-{(E)-1-(4-tert-Butylphenyl)-2-[(2R)-5-oxopyrrolidin-2-yl]ethenyl}-3-(2-phenylethyl)pyridin-2(1H)-one] | 0.01 to 0.5
CC(C)(C)c1ccc(/C(=C\[C@H]2CCC(=O)N2)c2ccc(CCCc3ccccc3)c(=O)[nH]2)cc1 [Example 4-197, 6-{(E)-1-(4-tert-Butylphenyl)-2-[(2R)-5-oxopyrrolidin-2-yl]ethenyl}-3-(3-phenylpropyl)pyridin-2(1H)-one] | 0.5 to 3
CC(C)(C)c1ccc(/C(=C\[C@H]2CCC(=O)N2)c2ccc(CCCO)c(=O)[nH]2)cc1 [Example 4-198, 6-{(E)-1-(4-tert-Butylphenyl)-2-[(2R)-5-oxopyrrolidin-2-yl]ethenyl}-3-(3-hydroxypropyl)pyridin-2(1H)-one] | 0.01 to 0.5
O=C1CC[C@H](/C=C(\c2ccc(Cl)cc2)c2ccc(CCCCO)c(=O)[nH]2)N1 [Example 4-199, 6-{(E)-1-(4-Chlorophenyl)-2-[(2R)-5-oxopyrrolidin-2-yl]ethenyl}-3-(4-hydroxybutyl)pyridin-2(1H)-one] | 0.5 to 3
